Experimental data taken from patent US9127016B2, “Small molecule inhibitors of Dusp6 and uses therefor” (University of Pittsburgh—Of the Commonwealth System of …, priority 2009, dated 2015).

Assays:
[1] = target: T1, PTP1B (Homo sapiens, UniProt P18031); assay: OMFP phosphatase assay, PTP1B; format: biochemical; conditions: n=3, OMFP substrate, 15.2 nM-300 μM; read-out: mean in vitro values, PTP1B
T1 sequence (P18031 1-435): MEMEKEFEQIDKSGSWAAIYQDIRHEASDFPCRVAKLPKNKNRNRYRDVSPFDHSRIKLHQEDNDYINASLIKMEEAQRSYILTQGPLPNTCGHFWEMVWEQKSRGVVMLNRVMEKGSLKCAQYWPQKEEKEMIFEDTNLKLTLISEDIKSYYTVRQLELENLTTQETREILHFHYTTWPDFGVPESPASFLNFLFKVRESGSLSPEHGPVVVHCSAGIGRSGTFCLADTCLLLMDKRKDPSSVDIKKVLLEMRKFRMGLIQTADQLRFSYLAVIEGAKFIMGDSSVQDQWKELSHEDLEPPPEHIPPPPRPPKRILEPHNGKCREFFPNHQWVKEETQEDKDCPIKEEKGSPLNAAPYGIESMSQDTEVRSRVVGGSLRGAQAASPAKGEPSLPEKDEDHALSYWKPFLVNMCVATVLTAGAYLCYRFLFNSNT
Procedure: Enzyme activities in the presence or absence of BCI were measured using the artificial substrate […] at concentrations equal to the Km of each enzyme (Cdc25B, PTP1B & Dusp3/VHR) and at optimal pH for individual enzyme activity in a 96-well microtiter plate assay based on previously described methods by Lazo et al. (J Med Chem 44, 4042-9 (2001) and Lazo, J. S. et al. Bioorg Med Chem 14, 5643-50 (2006)). Briefly, the standard assay conditions contained 0.02 mg/ml OMFP in assay buffer (30 mM Tris-HCl (pH8.0), 75 mM NaCl, 1 mM EDTA, 0.33% BSA and 1 mM DTT). Fluorescence emission was measured after a sixty-minute incubation period at ambient temperature using a multiwell plate reader (SpectraMax m5, […]; excitation 485 nm, emission 525 nm). Sodium orthovanadate (100 μM) was used as a positive control for full phosphatase inhibition. IC50 concentrations were determined from three experiments using 10 concentrations of BCI ranging from 300 μM to 15.2 nM and GraphPad Prism 5.0 software.

[2] = system: Dusp5; assay: Zebrafish mRNA microinjection, rescue of sef expression, dusp5; format: in vivo; conditions: 5 μM BCI, shield stage
Procedure: (§1) dusp6 and XFD mRNA for microinjection studies were generated as previously described (Tsang, M. et al. Development 131, 2769-79 (2004)). Both Dusp5 and Spry4 ORFs were amplified by RT-PCR from 24 hpf zebrafish with the following primers: […]
(§2) Amplified PCR products were subcloned into pCS2+, sequenced verified and mRNAs were synthesized as described previously. Embryos were injected with 500 pg mRNA at the 1-2 cell stage, treated with 5 μM BCI at the 1000-cell stage and fixed at shield stage for in situ hybridization.
(§3) In situ hybridization experiments were carried out as described previously (Kudoh, T. et al. Genome Res 11, 1979-87 (2001)). The probes eng3, krox20, sef, dusp6, gata4, nkx2.5, cmlc2, vmhc, scl, etsrp and hand2 were generated with a RNA labeling kit (Roche) (Tsang, M. et al. Development 131, 2769-79 (2004); Chen, J. N. et al. Development 122, 3809-16 (1996); Ekker, M., et al. Development 116, 1001-10 (1992); Liao, E. C. et al. Genes Dev 12, 621-6 (1998); Oxtoby, E. et al. Nucleic Acids Res 21, 1087-95 (1993); Pham, V. N. et al. Dev Biol 303, 772-83 (2007); Tsang, M., et al. Nat Cell Biol 4, 165-9 (2002); Yelon, D., et al. Dev Biol 214, 23-37 (1999); and Yelon, D. et al. Development 127, 2573-82 (2000)). The double fluorescent in situ hybridization protocol was described by Schoenbeck et al. (Dev Cell 13, 254-67 (2007)). […]

[3] = system: XFD (dominant negative FGF receptor); assay: Zebrafish mRNA microinjection, rescue of sef expression, XFD; format: in vivo; conditions: 5 μM BCI, shield stage
Procedure: as §1, §2, §3

[4] = system: FGF target genes; assay: Whole mount in situ hybridization of FGF target genes in treated embryos; format: in vivo, zebrafish
Procedure: In situ hybridization experiments were carried out as described previously (Kudoh, T. et al. Genome Res 11, 1979-87 (2001)). The probes eng3, krox20, sef, dusp6, gata4, nkx2.5, cmlc2, vmhc, scl, etsrp and hand2 were generated with a RNA labeling kit (Roche) (Tsang, M. et al. Development 131, 2769-79 (2004); Chen, J. N. et al. Development 122, 3809-16 (1996); Ekker, M., et al. Development 116, 1001-10 (1992); Liao, E. C. et al. Genes Dev 12, 621-6 (1998); Oxtoby, E. et al. Nucleic Acids Res 21, 1087-95 (1993); Pham, V. N. et al. Dev Biol 303, 772-83 (2007); Tsang, M., et al. Nat Cell Biol 4, 165-9 (2002); Yelon, D., et al. Dev Biol 214, 23-37 (1999); and Yelon, D. et al. Development 127, 2573-82 (2000)). The double fluorescent in situ hybridization protocol was described by Schoenbeck et al. (Dev Cell 13, 254-67 (2007)). Fluorescent in situ hybridizations were visualized by confocal microscopy. Single optical sections and z-series of flat-mounted stained embryos were collected with a confocal laser scan head (SP5, Leica Microsystems, Inc.) mounted on an inverted compound microscope (DM16000, Leica Microsystems, Inc.). Images were scanned and compiled with NIH ImageJ software (rsb.info.nih.gov/ij/).
We previously described the generation of a transgenic zebrafish line, (Tg(Dusp6:d2EGFP)pt6) that expresses destabilized green fluorescent protein (d2EGFP) under the control of FGF signaling (Molina, G. A., et al. BMC Dev Biol 7, 62 (2007)). […] Five transgenic embryos at 24 hours post fertilization (hpf) were arrayed into each well of a 96-well plate containing test compounds at 10 μM. d2EGFP intensity in treated embryos was visually analyzed and compared to vehicle control (0.5% DMSO) after 6-8 hours. […] To confirm that BCI hyperactivated FGF signaling, we treated embryos prior to gastrulation (5 hpf), and we analyzed by whole mount in situ hybridization, the expression of ntl (zebrafish brachyury), a known FGF target gene (Latinkic, B. V. et al. Genes Dev 11, 3265-76 (1997)). […] We next determined the BCI structural features required to enhance FGF signaling. […]

O=C1/C(=C/c2ccccc2)C(NC2CCCCC2)c2ccccc21 (stereo not drawn) [Compound 3, (E)-2-benzylidene-3-(cyclohexylamino)-2,3-dihydro-1H-inden-1-one]
IC50 [1]: > 300 µM | reversal of phenotype caused by Dusp5 over-expression [2]: little or no effect | reversal of effects of XFD mRNA on sef expression [3]: did not reverse | expression of ntl ([4]; treated prior to gastrulation (5 hpf), 6-somite stage): greatly expanded | expression of engrailed3 (eng3) and krox20 ([4]; treatment during somitogenesis): increased expression | expression of dusp6 ([4]; treatment from the 1- to 10-somite stage): marked increase
